The text below walks through data of US8097752B2, “Antiprotozoal ring-substituted phospholipids” (priority 2002, dated 2012).

For data set [1], the system named is promastigote forms of Leishmania infantum. In words: In vitro antileishmanial activity in promastigote cultures (MTT), L. infantum. Type of data set: cell-based, Leishmania infantum MHOM/TN/80/IPT1/LEM 235. The conditions noted are these: promastigotes, 72 h incubation, mean ± SEM, n = 3-4 (each run in duplicate), read-out: IC50 (μM) L. infantum MON 235. How it is done:
(§1) Determination of in Vitro Antileishmanial Activity in Promastigote Cultures.
(§2) The effect of the phospholipids according to the present invention against the promastigote forms of Leishmania donovani and Leishmania infantum was evaluated using an MTT (3-(4,5-dimethylthiazol-2yl)-2,5-diphenyltetrazolium bromide)-based enzymatic method as a marker of cell viability and was compared with that of the ether phospholipid hexadecylphosphocholine (Miltefosine). Thus, promastigotes of Leishmania infantum MHOM/TN/80/IPT1/LEM 235 and Leishmania donovani MHOM/IN/80/DD8/LEM 703, were grown in RPMI 1640 supplemented with 10% FCS, L. glutamine and antibiotics, at 26° C. All new compounds were dissolved in DMSO to a final concentration of 9.625 mM and linear 3-fold dilutions were done in the culture medium. 25 μL of promastigote culture at 5×10^5 cells/mL were cultured in a 96-well flat-bottom plate (Costar 3696), and incubated with 25 μL of different drug concentrations at 26° C. After 72 h, 10 μL of 5 mg/mL MTT in PBS (SIGMA M2128) were added and incubation was continued for 3 h. The reaction was stopped by the addition of 50 μL of 50% isopropanol, 10% SDS under gentle shacking for 30 min. Absorbance was measured at 550 nm with reference at 620 nm in a TRITURUS microplate reader.

Data set [2] concerns promastigote forms of Leishmania donovani. In words: In vitro antileishmanial activity in promastigote cultures (MTT), L. donovani. Type of data set: cell-based, Leishmania donovani MHOM/IN/80/DD8/LEM 703. The conditions noted are these: promastigotes, 72 h incubation, mean ± SEM, n = 3-4 (each run in duplicate), read-out: IC50 (μM) L. donovani MON 703. Here is the method: as §1, §2

A further data set has as its system THP1 cells. In words: Assessment of cytotoxicity in THP1 monocyte cells (SYBR-14/PI staining, flow cytometry). The conditions noted are these: THP1 monocytes infected with L. donovani and L. infantum; 72 hours; concentrations as low as 50 μM. Here is the method:
Thus, we proceeded to assess the cytotoxicity of four inventive compounds as well as miltefosine in the human monocytic cell line THP1.
Assessment of Cytotoxicity in THP1 Monocyte Cells.
As a quantitative measurement of the cell damage after incubation with different concentrations of drugs dual staining with SYBR-14 and PI (Molecular Probes, The Netherlands) was used followed by flow cytometry.
THP1 cell cultures were incubated at 1×10^6 cells/ml with different concentrations of the compounds ranging from 50 to 1.56 μM. After an incubation period of 72 hours approximately 4×10^6 cells were suspended in labeling buffer (10 mM HEPES, 150 mM NaCl, 10% BSA, pH 7.4) and 10 μg/ml PI and 0.1 mg/ml SYBR-14 were added. The cultures were incubated at 37° C. for 30 minutes before analysis by flow cytometry.
Cell samples were analyzed on an Epics Elite model flow cytometer (Coulter, Miami, Fla.). The green fluorescence of SYBR-14 and the red fluorescence of PI were excited at 488 nm. At least 10,000 cells were analyzed per sample and each staining experiment was repeated twice. Data analysis was performed on fluorescence intensities that excluded cell autofluorescence and cell debris.
THP1 monocytes infected with the appropriate Leishmania species were used for the evaluation of the leishmanicidal activity of the compounds against the intracellular amastigote stages of the parasite.

For the next data set, the system named is cutaneous leishmaniasis. The conditions noted are these: phase I study; 100-150 mg for 3 weeks; cited from earlier work.
Another data set relates to visceral leishmaniasis. The settings on record: cited from earlier work.

Where a name gives a salt, the structure may show the parent alone. Read-outs that look alike come from different tables or passages of the source.

Regarding `C[N+](C)(C)CCOP(=O)([O-])OCCCCCCCCCCC=C1CCCCC1` [Example 13, 1-{2-[(11-Cyclohexylideneundecyloxy)hydroxyphosphinyloxy]ethyl}-N,N,N-trimethylammonium inner salt], the IC50 in data set [1] turned out to be 5.2 ± 1.5 µM; in data set [2] it was 2.4 ± 0.6 µM. In the data set on THP1 cells, the “cytotoxic effect on THP1 cells (percentage of live THP1 cells, FIG. 1)” value was “not observed”.
In the same order, the values of `C[N+](C)(C)CCOP(=O)([O-])OCCCCCCCCCCC=C1C2CC3CC(C2)CC1C3` [Example 19, 1-{2-[(11-Adamantylideneundecyloxy)hydroxyphosphinyloxy]ethyl}-N,N,N-trimethylammonium inner salt] are 6.75 ± 2.4 µM, 3.16 ± 0.63 µM and “not observed”.
Turning to `CCCCCCCCCCCCCCCCOP(=O)([O-])OCC[N+](C)(C)C` [Miltefosine, hexadecylphosphocholine], the cure rate with cutaneous leishmaniasis is recorded as 94%. In addition, in the data set with visceral leishmaniasis (mice), the “effectiveness in treating mice infected with visceral leishmaniasis” value is “highly effective”. For the same compound, in the data set on visceral leishmaniasis (oral miltefosine vs subcutaneous pentostam, mice infected with visceral leishmaniasis), the “effectiveness of oral treatment relative to subcutaneous administration of pentostam” value is given as 600 fold. In addition, the IC50 in data set [1] (Leishmania infantum) turned out to be 22.6 ± 3.6 µM; in data set [2] (Leishmania donovani), 23.7 ± 4.07 µM.
